Where a name gives a salt, the structure may show the parent alone.

The conditions of series [1]: 1:1000 to 1:10,000 solutions; cited from earlier work.
For series [2] the following is noted: 1:1000 or 1:10,000 epinephrine in sterile aqueous solution; cited from earlier work.
The nature of series [3]: Treatment of a patient with asthma (Examples 1-3). On the procedure:
A patient presents with asthma complicated by degenerative heart disease and has variously used 0.25% or 1% isoproterenol aerosols, 0.10-0.20 mg epinephrine-bitartrate inhalers, and 90 μg albuterol every day at 4-6 hour intervals. […] The subject is administered an aerosol composition comprising 0.075% isoproterenol and 1.0% ascorbic acid.
A patient presents with asthma and has previously used 90 μg albuterol every day at 4-6 hour intervals. […] The subject is administered composition comprising 50 μg albuterol and […] morphine sulfate.
A patient presents with asthma and has previously used a 0.20 mg/dose epinephrine bitartrate inhaler every day at 6 hour intervals. The subject is administered a composition delivering a unit dose comprising 0.03 mg epinephrine bitatrate and 0.2 mg EDTA from a conventional inhaler.

The conditions of series [4]: 1:100,000 sterile aqueous solution; cited from earlier work.
For series [5] the following is noted: daily injections of 1 mg/kg for seven days; cited from earlier work.

`CNC[C@H](O)c1ccc(O)c(O)c1` [epinephrine]: in series [1], the “duration of action of conventional treatment” value is recorded as “only a few minutes”. The “side effects of conventional formulations” value in series [2] was “fear, anxiety, restlessness, and sleeplessness, dizziness and palpitations”.

`CC(C)NCC(O)c1ccc(O)c(O)c1` (centres unmarked) [isoproterenol]: the adverse side effects entry in series [3] (patient with asthma) is reported as “unacceptable side effects”.

As for `CNC[C@H](O)c1ccc(O)c(O)c1` [epinephrine hydrochloride], the “duration of beneficial effect of conventional treatment” value in series [4] is “about 15 minutes”.

Regarding `CNC[C@H](O)c1ccc(O)c(O)c1` [epinephrine-bitartrate], the adverse side effects result in series [3] (human, in vivo) was “unacceptable side effects”.

For the compound `C[C@H](N)Cc1ccccc1` [D-amphetamine], the “side effects of the typical treatment” value in series [5] is on record as “Side effects often result”.

Regarding `CC(C)(C)NCC(O)c1ccc(O)c(CO)c1` (centres unmarked) [albuterol], the adverse side effects result in series [3] (human, in vivo) was “unacceptable side effects”. Besides, the “control of asthma / symptom relief” value in series [3] (patient with asthma) is listed as “not well controlled”.

(Values after patent publication US20030216413A1, “Catecholamine pharmaceutical compositions and methods” (priority 2000, published 2003).)
